Assay results taken from US6569836B2, “6-O-alkyl-2-nor-2-substituted ketolide derivatives” (Abbott Laboratories, priority 1999, dated 2003).

Experiments:
Experiment in all cases: In vitro antibacterial activity, agar dilution MIC
[1] = test system: Candida albicans CCH 442; assay type: cell-based; conditions: code TT, BHI agar, 35-37° C., 20-24 hours, unit assumed
Method: (§1) Each plate was inoculated with 1:100 (or 1:10 for slow-growing strains, such as Micrococcus and Streptococcus) dilutions of up to 32 different microorganisms, using a Steers replicator block. The inoculated plates were incubated at 35-37° C. for 20-24 hours. In addition, a control plate using BHI agar with no test compound was prepared and incubated at the beginning and end of each test. A plate containing erythromycin A was also prepared to provide test-to-test comparability. […] After incubation, each plate was visually inspected. The minimum inhibitory concentration (MIC) was defined as the lowest concentration of drug yielding no growth, a slight haze, or sparsely isolated colonies on the inoculum spot as compared to the growth control.

[2] = test system: Mycobacterium smegmatis ATCC 114; assay type: cell-based; conditions: code UU, BHI agar, 35-37° C., 20-24 hours, unit assumed
Method: as §1

[3] = test system: Nocardia Asteroides ATCC 99700; assay type: cell-based; conditions: code VV, BHI agar, 35-37° C., 20-24 hours, unit assumed
Method: as §1

[4] = test system: Staphylococcus aureus 1775; assay type: cell-based; conditions: code GG, BHI agar, 35-37° C., 20-24 hours, unit assumed
Method: as §1

[5] = test system: Staphylococcus aureus A-5177; assay type: cell-based; conditions: code BB, BHI agar, 35-37° C., 20-24 hours, unit assumed
Method: as §1

[6] = test system: Staphylococcus aureus A-5278; assay type: cell-based; conditions: code CC, BHI agar, 35-37° C., 20-24 hours, unit assumed
Method: as §1

[7] = test system: Staphylococcus aureus ATCC 6538P; assay type: cell-based; conditions: code AA, BHI agar, 35-37° C., 20-24 hours, unit assumed
Method: as §1

[8] = test system: Staphylococcus aureus NCTC 10649M; assay type: cell-based; conditions: code EE, BHI agar, 35-37° C., 20-24 hours, unit assumed
Method: as §1

[9] = test system: Staphylococcus epidermidis 3519; assay type: cell-based; conditions: code HH, BHI agar, 35-37° C., 20-24 hours, unit assumed
Method: as §1

[10] = test system: Streptococcus Pneumonia 5649; assay type: cell-based; conditions: code ZA, BHI agar, 35-37° C., 20-24 hours, unit assumed
Method: as §1

[11] = test system: Streptococcus Pneumonia ATCC 6303; assay type: cell-based; conditions: code XX, BHI agar, 35-37° C., 20-24 hours, unit assumed
Method: as §1

[12] = test system: Streptococcus Pneumonia GYR 1171; assay type: cell-based; conditions: code YY, BHI agar, 35-37° C., 20-24 hours
Method: as §1

[13] = test system: Streptococcus agalactiae CMX 508; assay type: cell-based; conditions: code KK, BHI agar, 35-37° C., 20-24 hours, unit assumed
Method: as §1

[14] = test system: Streptococcus bovis A-5169; assay type: cell-based; conditions: code JJ, BHI agar, 35-37° C., 20-24 hours, unit assumed
Method: as §1

[15] = test system: Streptococcus pyogenes 930; assay type: cell-based; conditions: code MM, BHI agar, 35-37° C., 20-24 hours, unit assumed
Method: as §1

[16] = test system: Streptococcus pyogenes EES61; assay type: cell-based; conditions: code LL, BHI agar, 35-37° C., 20-24 hours, unit assumed
Method: as §1

[17] = test system: Streptococcus pyogenes PIU 2548; assay type: cell-based; conditions: code NN, BHI agar, 35-37° C., 20-24 hours, unit assumed
Method: as §1

[18] = test system: Micrococcusluteus ATCC 4698; assay type: cell-based, Micrococcus luteus; conditions: code PP, BHI agar, 35-37° C., 20-24 hours, unit assumed
Method: as §1

[19] = test system: Escherichiacoli JUHL; assay type: cell-based, Escherichia coli; conditions: code QQ, BHI agar, 35-37° C., 20-24 hours, unit assumed
Method: as §1

[20] = test system: Escherichiacoli SS; assay type: cell-based, Escherichia coli; conditions: code RR, BHI agar, 35-37° C., 20-24 hours, unit assumed
Method: as §1

[21] = test system: Haemophilislnfluenzae DILL AMP R; assay type: cell-based, Haemophilus influenzae; conditions: code WW, BHI agar, 35-37° C., 20-24 hours, unit assumed
Method: Representative compounds of the present invention were assayed in vitro for antibacterial activity as follows: twelve petri dishes containing successive aqueous dilutions of the test compound mixed with 10 mL of sterilized Brain Heart Infusion (BHI) agar (Difco 0418-01-5) were prepared. Each plate was inoculated with 1:100 (or 1:10 for slow-growing strains, such as Micrococcus and Streptococcus) dilutions of up to 32 different microorganisms, using a Steers replicator block. The inoculated plates were incubated at 35-37° C. for 20-24 hours. In addition, a control plate using BHI agar with no test compound was prepared and incubated at the beginning and end of each test.
A plate containing erythromycin A was also prepared to provide test-to-test comparability.
After incubation, each plate was visually inspected. The minimum inhibitory concentration (MIC) was defined as the lowest concentration of drug yielding no growth, a slight haze, or sparsely isolated colonies on the inoculum spot as compared to the growth control.

[22] = test system: Streptococcus Pneumonia 5979; assay type: cell-based; conditions: code ZZ, BHI agar, 35-37° C., 20-24 hours, unit assumed
Method: as §1, with “test.” for “test. A plate containing erythromycin A was also prepared to provide test-to-test comparability.”

| Molecule | Antibacterial Activity (MIC's) [1] | Antibacterial Activity (MIC's) [2] | Antibacterial Activity (MIC's) [3] | Antibacterial Activity (MIC's) [4] | Antibacterial Activity (MIC's) [5] | Antibacterial Activity (MIC's) [6] | Antibacterial Activity (MIC's) [7] | Antibacterial Activity (MIC's) [8] | Antibacterial Activity (MIC's) [9] | Antibacterial Activity (MIC's) [10] | Antibacterial Activity (MIC's) [11] | Antibacterial Activity (MIC's) ([12]; unit assumed) | Antibacterial Activity (MIC's) [13] | Antibacterial Activity (MIC's) [14] | Antibacterial Activity (MIC's) [15] | Antibacterial Activity (MIC's) [16] | Antibacterial Activity (MIC's) [17] | Antibacterial Activity (MIC's) [18] | Antibacterial Activity (MIC's) [19] | Antibacterial Activity (MIC's) [20] | further results |
| --- | --- | --- | --- | --- | --- | --- | --- | --- | --- | --- | --- | --- | --- | --- | --- | --- | --- | --- | --- | --- | --- |
| CCC1OC(=O)CC(=O)C(C)C(OC2OC(C)CC(N(C)C)C2O)C(C)(OCC=Cc2cnc3ccccc3c2)CC(C)C(=O)C(C)C2NC(=O)OC12C (centres unmarked) [Example 2, Compound of Formula (XI), R^p is Hydrogen, Y is Hydrogen, R^2 is 3-quinolyl, R^3 is Hydrogen and R^4 is Hydrogen] | > 100 µg/mL | 6.2 µg/mL | 0.2 µg/mL | > 100 µg/mL | 0.39 µg/mL | > 100 µg/mL | 0.39 µg/mL | 0.39 µg/mL | 0.39 µg/mL | 0.5 µg/mL | 0.03 µg/mL | 0.03 µg/mL | 0.02 µg/mL | 0.02 µg/mL | 50 µg/mL | 0.01 µg/mL | 0.2 µg/mL | 0.2 µg/mL | 100 µg/mL | 0.39 µg/mL | Antibacterial Activity (MIC's) [21]: 8 µg/mL; Antibacterial Activity (MIC's) [22]: 8 µg/mL |
| C=CCC1C(=O)OC(CC)C2(C)OC(=O)NC2C(C)C(=O)C(C)CC(C)(OCC=Cc2cnc3ccccc3c2)C(OC2OC(C)CC(N(C)C)C2O)C(C)C1=O (centres unmarked) [Example 5, Compound of Formula (XI), R^p is Hydrogen, Y is Hydrogen, R^2 is 3-quinolyl R^3 is —CH2CH═CH2 and R^4 is hydrogen] | > 100 µg/mL | > 100 µg/mL | > 100 µg/mL | > 100 µg/mL | > 100 µg/mL | > 100 µg/mL | > 100 µg/mL | > 100 µg/mL | > 100 µg/mL | > 128 µg/mL | 32 µg/mL | 32 µg/mL | 100 µg/mL | 25 µg/mL | > 100 µg/mL | 100 µg/mL | > 100 µg/mL | > 100 µg/mL | > 100 µg/mL | > 100 µg/mL | Antibacterial Activity (MIC's) [22]: > 128 µg/mL |
| CCC1OC(=O)C(CS(=O)(=O)O)C(=O)C(C)C(OC2OC(C)CC(N(C)C)C2O)C(C)(OCC=Cc2cnc3ccccc3c2)CC(C)C(=O)C(C)C2NC(=O)OC12C (centres unmarked) [Example 6, Compound of Formula (XI), R^p is Hydrogen, Y is Hydrogen, R^2 is 3-quinolyl, R^3 is —CH2SO3H and R^4 is Hydrogen] | > 100 µg/mL | 12.5 µg/mL | 0.2 µg/mL | > 100 µg/mL | 0.78 µg/mL | > 100 µg/mL | 0.39 µg/mL | 0.78 µg/mL | 0.78 µg/mL | 2 µg/mL | 0.25 µg/mL | 0.125 µg/mL | 0.2 µg/mL | 0.05 µg/mL | 25 µg/mL | 0.2 µg/mL | 0.78 µg/mL | 0.39 µg/mL | > 100 µg/mL | 3.1 µg/mL | Antibacterial Activity (MIC's) [21]: 16 µg/mL; Antibacterial Activity (MIC's) [22]: 64 µg/mL |
| CC[C@H]1OC(=O)[C@H](C)[C@@H](O[C@H]2C[C@@](C)(OC)[C@@H](O)[C@H](C)O2)[C@H](C)[C@@H](O[C@@H]2O[C@H](C)C[C@H](N(C)C)[C@H]2O)[C@](C)(O)C[C@@H](C)C(=O)[C@H](C)[C@@H](O)[C@]1(C)O [Ery. A, Erythromycin A, reference compound] | > 100 µg/mL | 3.1 µg/mL | 0.1 µg/mL | > 100 µg/mL | 3.1 µg/mL | > 100 µg/mL | 0.2 µg/mL | 0.39 µg/mL | 0.39 µg/mL | 16 µg/mL | 0.06 µg/mL | 0.06 µg/mL | 0.05 µg/mL | 0.02 µg/mL | > 100 µg/mL | 0.05 µg/mL | 6.2 µg/mL | 0.2 µg/mL | > 100 µg/mL | 0.78 µg/mL | Antibacterial Activity (MIC's) [21]: 4 µg/mL |
| Compound of Formula (I), R^p is Hydrogen, Y is Hydrogen, R^1 is —CH2CH(OH)CH(OH)—(3-quinolyl), R^3 is —CH2OH and R^4 is OH [Example 3] | > 100 µg/mL | 3.1 µg/mL | 0.05 µg/mL | > 100 µg/mL | 0.05 µg/mL | > 100 µg/mL | 0.05 µg/mL | 0.1 µg/mL | 0.05 µg/mL | 0.25 µg/mL | 0.008 µg/mL |  | 0.01 µg/mL | 0.01 µg/mL | 12.5 µg/mL | 0.01 µg/mL | 0.1 µg/mL | 0.05 µg/mL | 50 µg/mL | 0.2 µg/mL | Antibacterial Activity (MIC's) [12]: ≦0.004; Antibacterial Activity (MIC's) [21]: 2 µg/mL; Antibacterial Activity (MIC's) [22]: 64 µg/mL |
| CCC1OC(=O)C(CC(C(=O)OC)C(=O)OC)C(=O)C(C)C(OC2OC(C)CC(N(C)C)C2O)C(C)(OCC=Cc2cnc3ccccc3c2)CC(C)C(=O)C(C)C2NC(=O)OC12C (centres unmarked) [Example 7, Compound of Formula (XI), R^p is Hydrogen Y is Hydrogen R^2 is 3-quinolyl, R^3 is —CH CH(CO2Me)2 and R^4 is Hydrogen] |  |  |  |  |  |  |  |  |  | 0.25 µg/mL | 0.03 µg/mL | 0.03 µg/mL |  |  |  |  |  |  |  |  | Antibacterial Activity (MIC's) [21]: 8 µg/mL; Antibacterial Activity (MIC's) [22]: 64 µg/mL |
